Data on two compounds can be found in patent US20220312762A1, “USE OF ENCAPSULATED STEROLS TO MODIFY GROWTH OF CROPS, CONTROL, AGRICULTURAL PESTS AND AS NON-TOXIC PRE-EMERGENT HERBICIDES” (The Texas A&M University System, priority 2019, published 2022).

The subject of experiment [1] is Arabidopsis thaliana seeds. Nature of the experiment: Arabidopsis seed germination on sterol-supplemented media. It is filed as in vivo. The conditions noted are these: for decrease in germination: 100 μM exogenous sterol. How it is done:
(§1) Plants and Plant Growth Conditions. Cholesterol (C3045, Sigma-Aldrich, USA), stigmasterol (S2424, Sigma-Aldrich, USA), and β-sitosterol (567152, Millipore-Sigma, USA) were prepared as stock solutions with a slight modification from that described in literature. Sterols were dissolved in 100% ethanol at 1.5 mM concentration and combined with methyl-β-cyclodextrin (MβCD) (Sigma-Aldrich, USA) at a molar ratio of 1:3 to a final concentration of 1-300 μM sterol and 1-900 μM MβCD. The probe was either sonicated for 30 minutes and vortexed for 15 minutes before use, or just vortexed for 30 min before use. To make a powered water soluble form, the sterol (40-70% w/w β-sitosterol) is dissolved in 100% ethanol and then solubilized in β-cyclodextrins or their derivatives in water. The solution is then reduced by evaporation or freeze-drying to a powdered form.
(§2) The wild-type and transgenic seeds of Arabidopsis thaliana were surface-sterilized with 70% ethanol, rinsed in sterile distilled water (+/− sterol) and incubated at 4° C. in the dark for 48 hr. The imbibed seeds were then planted either planted in Petri dishes or in hydroponic containers. For Petri dish growth, 1% (w/v) agar (Sigma-Aldrich, USA) was dissolved in ½ strength Murashige and Skoog medium containing vitamins (Caisson Labs, USA) (+/− sterol), and the pH was adjusted to between 5.6 and 5.8. The seedlings were grown in vertically placed Petri dishes containing this medium for 5-10 days at 22° C. under the continuous white light (50 μmol m^−2sec^−1 photosynthetically active radiation). Hydroponic culture was a modification of that described in previous literature. The seeds were placed on a mesh inserted into the bottom of a sterile polypropylene 2 oz cup with a lid (TY-M2-100, Bingwu, sold on Amazon) inset into either a 4 oz sterile polypropylene cup (TY-M4-N50 Bingwu, sold on Amazon) or a black 5.5 oz sterile polypropylene Dart Conex cup (B07BK1DPPS, Table Top King, sold on Amazon). Enough medium (½ strength Murashige and Skoog medium containing vitamins (Caisson Labs, USA) (+/− sterol), and the pH was adjusted to between 5.6 and 5.8) was added to bring it up to the level of the mesh. They were grown for […] to maturity (˜75 days) in an 18:6 hr photoperiod at 22° C. with 100 […] photosynthetically active. Following growth, they were then harvested for sterol analysis, leaf venation analysis, or fresh and dry weight analysis, or photographed for image analysis of root, hypocotyl, and stem growth and color. Seed from typical crop plants, Nicotiana tabacum (tobacco) and Zea mays (corn) were also sown in defined medium in the presence and absence of encapsulated sterol to assess percent germination after one week. Common weed seeds (Amaranthus palmeri, Poa annua, and Ambrosia sp.) collected from natural sources were either grown in defined media (agar and Mirashige and Skoog medium) or planted in natural soils (sandy loam) in 2 inch inserts in plastic one foot square flats. They were treated with 100-500 microMolar phytosterol mix (40% β-sitosterol, 20% campesterol, 7% stigmasterol (SKU BSIT100, Bulk Supplements) with a 3:1 molar ratio of methyl-β-cyclodextrin in water. Growth was assessed in treated and untreated (only water) by seedling emergence in days after planting in a greenhouse with natural lighting.
(§3) Materials and Methods. Arabidopsis seeds were given a pre-cold treatment with a mixture of sterol, cholesterol (Sigma-Aldrich) or stigmasterol (Sigma-Aldrich) (1 microMolar, 10 microMolar and 100 microMolar) and methyl-β-cyclodextrin (Sigma-Aldrich) (1:3 ratio) and then planted on Murashige and Skoog-½ strength (Caisson's Lab) 1% agar media supplemented with a mixture of respective sterol and cyclodexterin (1:3 ratio). Common weed seeds (Amaranthus palmeri, Poa annua, and Ambrosia sp.) collected from natural sources were planted in natural soils (sandy loam) in 2 inch inserts in plastic one foot square flats. […]

Experiment [2] concerns Arabidopsis thaliana. In words: Arabidopsis growth and development on sterol-supplemented media. The conditions noted are these: for growth phenotype: 100 μM exogenous sterol; for root anatomy: 100 μM sterol; for biomass: 8-days old seedlings on sterol-supplemented media, high sterol (FIG. 5A, 5B); for chlorophyll levels: plants grown on sterol media (FIG. 4A-4D); for root and root hair growth and development: sterol-supplemented media (FIG. 3A-3E). It is filed as in vivo. As for the experimental part:
as §1, §2, §3

[3] abbreviates: 10 microMolar encapsulated sterol.
The mark [4] stands for this setting: 100 microMolar encapsulated sterol.

In experiment [1], `CC[C@H](/C=C/[C@@H](C)[C@H]1CC[C@H]2[C@@H]3CC=C4C[C@@H](O)CC[C@]4(C)[C@H]3CC[C@]12C)C(C)C` [stigmasterol] registered a decrease in germination of 35%. In addition, the “seed germination (in words)” value in experiment [1] (setting [3]) was “seeds germinate”. Besides, the “seed germination (in words)” value in experiment [1] (setting [4]) is “significantly inhibit”. Besides, in experiment [2], the growth phenotype result was “severe dwarfism”, the root anatomy result was “altered root anatomy”, the biomass entry is given as “reduced biomass” and the chlorophyll levels entry is given as “change chlorophyll levels”. In addition, in experiment [2], the “root and root hair growth and development” value was “alters”.

Regarding `CC(C)CCC[C@@H](C)[C@H]1CC[C@H]2[C@@H]3CC=C4C[C@@H](O)CC[C@]4(C)[C@H]3CC[C@]12C` [cholesterol, Cholesterol], the decrease in germination in experiment [1] was 40%. Moreover, in experiment [1] (setting [3]), the “seed germination (in words)” value is on record as “seeds germinate”. Also, in experiment [1] (setting [4]), the “seed germination (in words)” value is “significantly inhibit”. Further, the germination inhibited in experiment [1] (300 microMolar encapsulated sterol, after a week of growth (FIG. 6A)) was determined as 90%. In addition, in experiment [2] (100 μM), the vein pattern entry was “altered vein pattern”. In experiment [2], the growth phenotype entry was “severe dwarfism”, the root anatomy entry is on record as “altered root anatomy”, the biomass entry is “reduced biomass” and the chlorophyll levels result is on record as “change chlorophyll levels”. Further, in experiment [2], the “root and root hair growth and development” value is listed as “alters”.
